In assay [1] the test system is TRPM8, TRPV1 and TRPA1 channels. Nature of the assay: Specificity by Ca2+ fluorescence microscopy in mouse dorsal root ganglion (DRG) neurons. Format: cell-based. To be noted: Fluo-4 AM fluorescence, FIG. 1. The method, then: Neurons obtained from a mouse dorsal root ganglion (DRG) were used to determine the specificity of the TZM-7 compound. These cells constitutively express the TRPM8, TRPV1 and TRPA1 channels, among others (the TRPV1 and TRPA1 channels are channels of the same family as the TRPM8 channel and are permeable to calcium). The intracellular Ca^2+ concentration was measured using fluorescence microscopy in order to view the activity of these channels. The cells were seeded with a density of 250,000 cells/well on round glass cover slips (18 mm diameter, […]) in 12-well plates (Costar) and cultured in Pure-EMEM during 3 days immediately before the Ca^2+ experiments. […] The cells that were not sensitive to the application of high potassium concentration were not analysed. […] The fluorescence measurements were taken using an Axiovert 200 inverted microscope from Zeiss (Oberkochen, Germany) coupled with an ORCA-ER CCD camera (Hamamatsu Photonics, Bridgewater, N.J.) and observed through a 10× magnification air lens. The Fluo-4 AM fluorescent probe was excited at 500 nm using a Lambda-10-2 filter wheel (Sutter Instruments, Novato, Calif.) and the emission fluorescence was filtered with a 535 nm longpass filter. […]

For a further assay, the target named is T1, TRPM8 (Homo sapiens, UniProt Q7Z2W7).
T1 construct: expressed in transfected cells
T1 sequence (Q7Z2W7 whole entry): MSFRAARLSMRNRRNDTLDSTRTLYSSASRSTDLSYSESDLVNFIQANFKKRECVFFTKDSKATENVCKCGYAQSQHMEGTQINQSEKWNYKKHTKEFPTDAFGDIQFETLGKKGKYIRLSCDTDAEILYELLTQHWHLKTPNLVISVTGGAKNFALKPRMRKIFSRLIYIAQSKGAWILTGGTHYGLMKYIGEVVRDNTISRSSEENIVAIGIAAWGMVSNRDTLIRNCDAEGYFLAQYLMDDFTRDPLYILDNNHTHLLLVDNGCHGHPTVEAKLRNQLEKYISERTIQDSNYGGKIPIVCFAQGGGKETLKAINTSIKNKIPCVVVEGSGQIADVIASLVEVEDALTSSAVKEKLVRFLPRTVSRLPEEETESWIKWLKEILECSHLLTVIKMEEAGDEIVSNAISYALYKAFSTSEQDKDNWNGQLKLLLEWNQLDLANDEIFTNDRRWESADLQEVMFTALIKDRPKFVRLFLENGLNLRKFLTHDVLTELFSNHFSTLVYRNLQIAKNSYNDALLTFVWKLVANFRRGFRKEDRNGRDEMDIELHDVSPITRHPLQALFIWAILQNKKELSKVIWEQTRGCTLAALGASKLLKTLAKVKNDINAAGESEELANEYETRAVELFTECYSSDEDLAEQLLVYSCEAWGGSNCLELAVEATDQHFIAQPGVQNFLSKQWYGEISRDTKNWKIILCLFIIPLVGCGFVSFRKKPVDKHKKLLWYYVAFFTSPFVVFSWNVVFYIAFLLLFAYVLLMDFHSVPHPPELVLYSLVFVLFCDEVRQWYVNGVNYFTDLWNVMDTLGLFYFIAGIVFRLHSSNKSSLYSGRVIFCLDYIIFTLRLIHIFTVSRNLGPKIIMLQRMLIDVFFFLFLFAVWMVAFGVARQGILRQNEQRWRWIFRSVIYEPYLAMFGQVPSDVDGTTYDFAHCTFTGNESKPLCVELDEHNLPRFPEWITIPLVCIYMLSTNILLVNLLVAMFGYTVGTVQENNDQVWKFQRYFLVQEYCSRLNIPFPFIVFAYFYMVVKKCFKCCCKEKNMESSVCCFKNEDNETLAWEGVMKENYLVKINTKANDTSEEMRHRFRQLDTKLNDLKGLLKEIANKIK
Briefly: Ca2+ fluorimetry assay in CHO cell line stably expressing TRPM8. Format: cell-based. To be noted: CHO cells stably expressing TRPM8. The method, then:
The cells were cultured in monolayer in EMEM medium (Earle's minimum essential medium with Earle's salts, Invitrogen) supplemented with 10% foetal bovine serum (FBS), 2 mM L-glutamine, 1% penicillin-streptomycin solution and […] of the Geneticin antibiotic (Sigma) and kept at 37° C. in a humidified atmosphere with 5% of CO2. Ca^2+ fluorimetry assays were carried out in order to determine the efficacy of the compounds on the TRPM8 channels. The cells were seeded in 96-well plates with a density of 25,000 cells per well. Three days after seeding, the medium was removed and 100 μl of the Fluo-4NW fluorescent probe from Invitrogen was added with a concentration of 5 μM in the presence of 0.02% pluronic acid; after 60 minutes of incubation at 37° C. in a humidified atmosphere with 5% of CO2, the fluorescence was measured in a microplate reader (POLARstar Omega) with a configuration of 485 nm for the excitation and 520 nm for the emission, during 20 cycles. […] In the wells that were used as negative controls, 1 μl of AMTB [N-(3-aminopropyl)-2-[(3-methylphenyl)methoxy]-N-(2-thienylmethyl)benzamide] was added to obtain a final concentration of 10 μM, to block the TRPM8 channels.
The amplitudes of the Ca^2+ increases, caused by the stimulation of the cells with the compounds, were measured by subtracting the basal fluorescence signal (mean intensity obtained before adding the compound) from the fluorescence peak obtained after applying the compounds. The obtained results were adjusted to a sigmoid function using the software suite of the GraphPad Prism computer program.

In another assay the test system is guinea pig. Briefly: In vivo tear secretion measured using phenol red threads after ocular instillation. As to conditions: 10 μM, phenol red thread 30 seconds, p<0.05, comparable to menthol at 200 μM, FIG. 2. From the text: The in vivo activity of the selected TRPM8 activating compounds (TZM-7) has been assessed in an animal model following the protocol described in Acosta M C et al., Invest Ophthalmol Vis Sci 2014 (Corneal sensory nerve activity in an experimental model of UV keratitis. Acosta M et al., Invest Ophthalmol Vis Sci May 1; 55(6):3403-12). […] Tear secretion can be measured using phenol red threads (Zone-Quick, Menicon, Nagoya, Japan) that are applied to the nasal edge of the lower eyelid for 30 seconds (after that time, the distance of the red-dyed thread is measured in mm).

What is called EC50 is the concentration giving half of the maximal effect. A higher EC50 goes with a less potent agent.

For `COc1cc(OC)cc(-c2cn([C@@H]3C[C@H](C)CC[C@H]3C(C)C)nn2)c1` [TZM-7, 4-(3,5-dimethoxyphenyl)-1-((1R,2S,5R)-2-isopropyl-5-methylcyclohexyl)-1H-1,2,3-triazole], the “specificity to activate TRPM8 channels compared with other channels (TRPV1 and TRPA1)” value in assay [1] is given as “high specificity”. In addition, the activation at 10 µM on TRPM8 (10 μM, Fluo-4NW fluorescence) was 78.5 ± 30.6%. Further, the EC50 at TRPM8 (concentrations 0.1, 1, 10 and 100 μM, sigmoid fit) turned out to be 2910 ± 210 nM. The “rate of lachrymation (tear secretion)” value with guinea pig is on record as “significantly increases the rate of lachrymation”.

For the origin of these results see patent publication US10905679B2, “TRPM8 receptor agonist compounds and uses thereof” (UNIVERSIDAD MIGUEL HERNANDEZ DE ELCHE, priority 2016, dated 2021).
